From patent publication US9795692B2, “Ocular detection of amyloid proteins” (SYSTEM OF SYSTEMS ANALYTICS, INC., priority 2011, dated 2017)

Legend:
Format in all cases: binding
[1] = system: amyloid protein aggregates in brain tissue of transgenic mice with Alzheimer's Disease (Tg AD); assay: Staining of murine brain tissue with FITC-labeled probe; conditions: age-matched non-Tg murine brain; dentate gyrus or midbrain
Description: Probes for detecting amyloid protein aggregates in brain tissue of transgenic mice with Alzheimer's Disease (Tg AD) were prepared in accordance with the methods described herein.

[2] = system: amyloid aggregates in human eyes (optic nerve, ciliary retina, retina, drusen); assay: Staining of sectioned human donor eyes
Source text: Human eyes from donors with and without Alzheimer's Disease were obtained from the Georgia Eye Bank.

[3] = target: T1, non-Congophilic amyloid protein aggregates in human brain tissue (Homo sapiens, UniProt P05067); assay: Staining of human hippocampal region and cerebral cortex compared with Congo Red
T1 construct: from tissue; host or cells: human post-mortem brain tissue (neocortex, hippocampus, cerebral cortex)
T1 sequence (P05067 672-713 limits assumed): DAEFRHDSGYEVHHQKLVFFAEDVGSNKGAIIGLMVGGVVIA

[4] = patient (3), 11-1755/6, person, Alzheimer's Disease and dementia
[5] = patient (4), 11-1767-8, person, Alzheimer's Disease

| Compound | staining of non-Tg control brain tissue [1] | binding to amyloid aggregates in the optic nerve, intensity ([2]; human eye sections, optic nerve, PEP-11 compared with BC750) | staining of the retina, intensity and homogeneity ([2]; human eye sections, retina) | retinal staining: distinguishing Alzheimer's Disease from non-Alzheimer's Disease tissue ([2]; human eye sections, retina, AD vs non-AD eyes) | binding in optic nerve and ciliary retina ([2]; human eye sections, optic nerve immediately posterior to lamina cribrosa, ciliary retina) | manner of optic nerve staining ([2]; optic nerve of Alzheimer's Disease patients) | ciliary retina background staining [2, 4] | optic nerve staining [2, 4] | ciliary retina background staining [2, 5] | optic nerve staining [2, 5] | staining of drusen ([2]; patient eyes, generally) | structures stained in the cerebral cortex ([3]; cerebral cortex of patients with Alzheimer's Disease) | staining of morphological structures within the brain parenchyma ([3]; human brain parenchyma) | structures stained in the hippocampal region ([3]; human brain tissue, hippocampal region) |
| --- | --- | --- | --- | --- | --- | --- | --- | --- | --- | --- | --- | --- | --- | --- |
| PEP-11: WT17-35 with FITC and d-Arginine at C-Terminal (CLVFFAEDVGSNKGAIIGLMC; FITC label, C-terminal D-arginine; /note=“Description of Artificial Sequence Synthetic probe”) | minimally stained | significantly greater | ubiquitous background staining of retinal tissue | less intensely in non-Alzheimer's Disease eyes as compared to Alzheimer's Disease eyes | bound to amyloid aggregates | dose gradient manner | moderate and homogenous | moderate | moderate and homogenous | intense | appears to stain drusen |  |  |  |
| Nc1c(/N=N/c2ccc(-c3ccc(/N=N/c4cc(S(=O)(=O)O)c5ccccc5c4N)cc3)cc2)cc(S(=O)(=O)O)c2ccccc12 [Congo Red] |  |  |  |  |  |  |  |  |  |  |  | stained congophilic neuro-fibrillary tangles | Neither Congo Red nor PEP-11 stained any morphological structure | stained amyloid plaques at the center of the plaques |
